Source: US12146177B2, “Methods of making and using E,Z,E-geranylgeranyl diphosphate” (WiSys Technology Foundation, Inc., priority 2020, dated 2024)

Tested on: Escherichia coli C41
Assay type: cell-based
Settings: compound itself not applied to cells

SMILES: CC(C)=CCC/C(C)=C/CC/C(C)=C\CC/C(C)=C/COP(=O)(O)OP(=O)(O)O [E,Z,E-GGPP, E,Z,E-Geranylgeranyl pyrophosphate]
- bactericidal effect on E. coli: bactericidal agent
